Source: US20120065066A1, “NOVEL HERBICIDES” (SYNGENTA CROP PROTECTION LLC, priority 2009, published 2012)

Assays:
Assay type in all cases: in vivo
[1] = test system: Alopecurus myosuroides (ALOMY); assay: Test Example 1, post-emergence herbicidal test; settings: 360 h, evaluated 15 days later, 100=total damage to plant, 0=no damage to plant
Method: (§1) Monocotyledonous and dicotyledonous test plants were sown in standard soil in pots. After cultivation for one day (pre-emergence) or after 10 days cultivation (post-emergence) under controlled conditions in a glasshouse, the plants were sprayed with an aqueous spray solution derived from the formulation of the technical active ingredient in 0.6 ml acetone and 45 ml formulation solution containing 10.6% Emulsogen EL (Registry number 61791-12-6), 42.2% N-methylpyrrolidone, 42.2% dipropylene glycol monomethyl ether (Registry number 34590-94-8) and 0.2% X-77 (Registry number 11097-66-8). The test plants were then grown in a greenhouse under optimum conditions until, 15 days later for post-emergence and 20 days for pre-emergence, the test was evaluated (100=total damage to plant; 0=no damage to plant). Test Plants: Lolium perenne (LOLPE), Setaria faberi (SETFA), Digitaria sanguinalis (DIGSA), Alopecurus myosuroides (ALOMY), Echinochloa crus-galli (ECHCG) and Avena fatua (AVEFA), Post-Emergence Data: […]

[2] = test system: Digitaria sanguinalis (DIGSA); assay: Test Example 1, post-emergence herbicidal test; settings: 360 h, evaluated 15 days later, 100=total damage to plant, 0=no damage to plant
Method: as §1

Avena fatua (AVEFA) [3] = assay: Test Example 1, post-emergence herbicidal test; settings: 360 h, evaluated 15 days later, 100=total damage to plant, 0=no damage to plant
Method: as §1

Lolium perenne (LOLPE) [4] = assay: Test Example 1, post-emergence herbicidal test; settings: 360 h, evaluated 15 days later, 100=total damage to plant, 0=no damage to plant
Method: as §1

Setaria faberi (SETFA) [5] = assay: Test Example 1, post-emergence herbicidal test; settings: 360 h, evaluated 15 days later, 100=total damage to plant, 0=no damage to plant, read-out: SEFTA damage to plant
Method: as §1

[6] = test system: Echinochloa crus-galli (ECHCG); assay: Test Example 1, post-emergence herbicidal test; settings: 360 h, evaluated 15 days later, 100=total damage to plant, 0=no damage to plant
Method: as §1

[7] = test system: Alopecurus myosuroides (ALOMY); assay: Test Example 1, pre-emergence herbicidal test; settings: 480 h, evaluated 20 days later, 100=total damage to plant, 0=no damage to plant
Method: as §1, with “Pre-Emergence” for “Post-Emergence”

[8] = test system: Digitaria sanguinalis (DIGSA); assay: Test Example 1, pre-emergence herbicidal test; settings: 480 h, evaluated 20 days later, 100=total damage to plant, 0=no damage to plant
Method: as §1, with “Pre-Emergence” for “Post-Emergence”

Avena fatua (AVEFA) [9] = assay: Test Example 1, pre-emergence herbicidal test; settings: 480 h, evaluated 20 days later, 100=total damage to plant, 0=no damage to plant
Method: as §1, with “Pre-Emergence” for “Post-Emergence”

Lolium perenne (LOLPE) [10] = assay: Test Example 1, pre-emergence herbicidal test; settings: 480 h, evaluated 20 days later, 100=total damage to plant, 0=no damage to plant
Method: as §1, with “Pre-Emergence” for “Post-Emergence”

Setaria faberi (SETFA) [11] = assay: Test Example 1, pre-emergence herbicidal test; settings: 480 h, evaluated 20 days later, 100=total damage to plant, 0=no damage to plant, read-out: SEFTA damage to plant
Method: as §1, with “Pre-Emergence” for “Post-Emergence”

[12] = test system: Echinochloa crus-galli (ECHCG); assay: Test Example 1, pre-emergence herbicidal test; settings: 480 h, evaluated 20 days later, 100=total damage to plant, 0=no damage to plant
Method: as §1, with “Pre-Emergence” for “Post-Emergence”

[13] = test system: Alopecurus myosuroides (ALOMY); assay: Test Example B, post-emergence herbicidal test; settings: 312 h, evaluated after 13 days, 100=total damage to plant, 0=no damage to plant
Method: (§2) Seeds of a variety of test species were sown in standard soil in pots. After cultivation for one day (pre-emergence) or after 8 days cultivation (post-emergence) under controlled conditions in a glasshouse (at 24/16° C., day/night; 14 hours light; 65% humidity), the plants were sprayed with an aqueous spray solution derived from the formulation of the technical active ingredient in acetone/water (50:50) solution containing 0.5% Tween 20 (polyoxyethelyene sorbitan monolaurate, CAS RN 9005-64-5). The test plants were then grown in a glasshouse under controlled conditions in a glasshouse (at 24/16° C., day/night; 14 hours light; 65% humidity) and watered twice daily. After 13 days for pre and post-emergence, the test was evaluated (100=total damage to plant; 0=no damage to plant). Test Plants: Setaria faberi (SETFA), Alopecurus myosuroides (ALOMY), Echinochloa crus-galli (ECHCG), and Avena fatua (AVEFA).

Avena fatua (AVEFA) [14] = assay: Test Example B, post-emergence herbicidal test; settings: 312 h, evaluated after 13 days, 100=total damage to plant, 0=no damage to plant
Method: as §2

[15] = test system: Echinochloa crus-galli (ECHCG); assay: Test Example B, post-emergence herbicidal test; settings: 312 h, evaluated after 13 days, 100=total damage to plant, 0=no damage to plant
Method: as §2

[16] = test system: Alopecurus myosuroides (ALOMY); assay: Test Example B, pre-emergence herbicidal test; settings: 312 h, evaluated after 13 days, 100=total damage to plant, 0=no damage to plant
Method: as §2

Avena fatua (AVEFA) [17] = assay: Test Example B, pre-emergence herbicidal test; settings: 312 h, evaluated after 13 days, 100=total damage to plant, 0=no damage to plant
Method: as §2

[18] = test system: Echinochloa crus-galli (ECHCG); assay: Test Example B, pre-emergence herbicidal test; settings: 312 h, evaluated after 13 days, 100=total damage to plant, 0=no damage to plant
Method: as §2

SMILES | pest or weed control at 125 g/ha [1] | pest or weed control at 125 g/ha [2] | pest or weed control at 125 g/ha (Avena fatua (AVEFA) [3]) | pest or weed control at 125 g/ha (Lolium perenne (LOLPE) [4]) | pest or weed control at 125 g/ha (Setaria faberi (SETFA) [5]) | pest or weed control at 125 g/ha [6] | pest or weed control at 250 g/ha [7] | pest or weed control at 250 g/ha [8] | pest or weed control at 250 g/ha (Avena fatua (AVEFA) [9]) | pest or weed control at 250 g/ha (Lolium perenne (LOLPE) [10]) | pest or weed control at 250 g/ha (Setaria faberi (SETFA) [11]) | pest or weed control at 250 g/ha [12] | pest or weed control at 250 g/ha [13] | pest or weed control at 250 g/ha (Avena fatua (AVEFA) [14]) | pest or weed control at 250 g/ha [15] | pest or weed control at 250 g/ha [16] | pest or weed control at 250 g/ha (Avena fatua (AVEFA) [17]) | pest or weed control at 250 g/ha [18]
CCc1ccc(-c2ccc(Cl)cc2)cc1C1=C(O)[C@H]2[C@H]3C=C[C@](OC)(CC3)[C@H]2C1=O (racemic) [Compound T8, rac-(3aS,4R,7R,7aS)-2-(4′-chloro-4-ethylbiphenyl-3-yl)-4-methoxy-3a,4,7,7a-tetrahydro-4,7-ethanoindene-1,3-dione] | 70% | 100% | 10% | 0% | 80% | 100% | 60% | 100% | 10% | 70% | 90% | 100% |  |  |  |  |  | 
CCc1cc(C)cc(CC)c1C1=C(O)[C@H]2[C@H]3CC[C@H](CC3)[C@H]2C1=O (racemic) [Compound T48, rac-(7R,8S)-2-(2,6-diethyl-4-methylphenyl)hexahydro-4,7-ethanoindene-1,3-dione] | 80% | 100% | 70% | 100% | 80% | 90% | 100% | 100% | 70% | 100% | 100% | 100% |  |  |  |  |  | 
Cc1cc(C)c(C2=C(O)[C@H]3[C@H]4CC[C@H](C4)[C@H]3C2=O)c(C)c1 (racemic) [Compound T50, rac-(5S,6S,7R)-2-(2,4,6-trimethylphenyl)hexahydro-4,7-methanoindene-1,3-dione] | 30% | 30% | 10% | 30% | 0% | 20% | 70% | 80% | 50% | 100% | 100% | 70% |  |  |  |  |  | 
CCc1ccc(-c2ccc(Cl)cc2)cc1C1=C(O)[C@H]2C3CCC(C3=C(C)C)[C@H]2C1=O (stereo partly drawn) [Compound T21] | 20% | 20% | 20% | 0% | 20% | 0% | 60% | 50% | 20% | 40% | 60% | 30% |  |  |  |  |  | 
CCc1ccc(-c2ccc(Cl)nc2Cl)cc1C1=C(O)[C@H]2[C@H]3CC[C@H](C3)[C@H]2C1=O [Compound T37] |  |  |  |  |  |  |  |  |  |  |  |  | 70% | 0% | 90% | 50% | 70% | 90%
CCc1ccc(-c2c(F)cc(Cl)cc2Cl)cc1C1=C(O)[C@H]2[C@H]3CC[C@H](C3)[C@H]2C1=O [Compound T38] |  |  |  |  |  |  |  |  |  |  |  |  | 30% | 40% | 90% | 0% | 0% | 80%
CCc1ccc(-c2ccc(Cl)c(F)c2Cl)cc1C1=C(O)[C@H]2[C@H]3CC[C@H](C3)[C@H]2C1=O [Compound T39] |  |  |  |  |  |  |  |  |  |  |  |  | 70% | 50% | 100% | 40% | 70% | 100%
